# Data as given in ChEMBL document CHEMBL5465560, “Selectivity Literature for EUbOPEN Chemogenomic Library” (2024).
# Experiments:
# [1] = biological target: Tyrosine-protein kinase Lyn (Homo sapiens, UniProt P07948); details: at 10 µM
# [2] = biological target: Mitogen-activated protein kinase 14 (Homo sapiens, UniProt Q16539); assay: Selectivity interaction (Upstate Kinase Profiler service (Millipore)) EUB0000056c MAPK14; details: at 1 µM
# [3] = biological target: Serine/threonine-protein kinase RIO2 (Homo sapiens) (UniProt Q9BVS4); assay: Selectivity interaction (KinomeScan (DiscoverX)) EUB0000655a RIOK2; details: at 10 µM
# [4] = biological target: Diacylglycerol kinase alpha (Homo sapiens) (UniProt P23743); assay: Selectivity interaction (Kinase panel (KiNativ target engagement assay in Jurkat cells)) EUB0001635a DGKA; format: cell-based; details: Selectivity number of off-targets 0.0, Selectivity number of targets 233.0, Source Knowledge https://www.sciencedirect.com/science/article/pii/S2451945619300674?via%3Dihub, at 1 µM
# Diacylglycerol kinase alpha (Homo sapiens), sequence (P23743 whole entry): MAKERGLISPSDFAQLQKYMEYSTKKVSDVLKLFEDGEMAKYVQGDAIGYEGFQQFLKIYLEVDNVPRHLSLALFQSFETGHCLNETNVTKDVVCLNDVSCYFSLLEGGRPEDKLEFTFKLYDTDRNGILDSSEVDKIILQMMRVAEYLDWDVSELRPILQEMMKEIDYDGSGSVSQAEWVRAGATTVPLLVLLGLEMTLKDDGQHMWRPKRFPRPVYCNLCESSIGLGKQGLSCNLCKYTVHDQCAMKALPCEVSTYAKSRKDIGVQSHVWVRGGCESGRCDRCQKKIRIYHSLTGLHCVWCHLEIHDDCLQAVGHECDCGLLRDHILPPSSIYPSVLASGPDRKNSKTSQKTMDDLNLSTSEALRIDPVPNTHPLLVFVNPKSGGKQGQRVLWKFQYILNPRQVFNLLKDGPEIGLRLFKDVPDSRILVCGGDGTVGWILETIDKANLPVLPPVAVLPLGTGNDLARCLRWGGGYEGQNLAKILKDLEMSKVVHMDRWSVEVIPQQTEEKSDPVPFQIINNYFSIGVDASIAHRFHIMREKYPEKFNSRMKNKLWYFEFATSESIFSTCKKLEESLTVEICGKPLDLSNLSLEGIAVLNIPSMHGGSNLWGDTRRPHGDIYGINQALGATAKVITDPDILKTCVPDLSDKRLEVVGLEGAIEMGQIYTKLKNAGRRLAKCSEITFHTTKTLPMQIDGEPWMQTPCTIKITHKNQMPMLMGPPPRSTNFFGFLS
# [5] = system: Proto-oncogene tyrosine-protein kinase receptor Ret (Homo sapiens), P07949 [G691S]; assay: (§1) Selectivity interaction (LanthaScreen Eu Kinase Binding Assay) EUB0001632a RET; details: at 10 µM
# Proto-oncogene tyrosine-protein kinase receptor Ret (Homo sapiens), P07949 [G691S], sequence (P07949 whole entry G691S): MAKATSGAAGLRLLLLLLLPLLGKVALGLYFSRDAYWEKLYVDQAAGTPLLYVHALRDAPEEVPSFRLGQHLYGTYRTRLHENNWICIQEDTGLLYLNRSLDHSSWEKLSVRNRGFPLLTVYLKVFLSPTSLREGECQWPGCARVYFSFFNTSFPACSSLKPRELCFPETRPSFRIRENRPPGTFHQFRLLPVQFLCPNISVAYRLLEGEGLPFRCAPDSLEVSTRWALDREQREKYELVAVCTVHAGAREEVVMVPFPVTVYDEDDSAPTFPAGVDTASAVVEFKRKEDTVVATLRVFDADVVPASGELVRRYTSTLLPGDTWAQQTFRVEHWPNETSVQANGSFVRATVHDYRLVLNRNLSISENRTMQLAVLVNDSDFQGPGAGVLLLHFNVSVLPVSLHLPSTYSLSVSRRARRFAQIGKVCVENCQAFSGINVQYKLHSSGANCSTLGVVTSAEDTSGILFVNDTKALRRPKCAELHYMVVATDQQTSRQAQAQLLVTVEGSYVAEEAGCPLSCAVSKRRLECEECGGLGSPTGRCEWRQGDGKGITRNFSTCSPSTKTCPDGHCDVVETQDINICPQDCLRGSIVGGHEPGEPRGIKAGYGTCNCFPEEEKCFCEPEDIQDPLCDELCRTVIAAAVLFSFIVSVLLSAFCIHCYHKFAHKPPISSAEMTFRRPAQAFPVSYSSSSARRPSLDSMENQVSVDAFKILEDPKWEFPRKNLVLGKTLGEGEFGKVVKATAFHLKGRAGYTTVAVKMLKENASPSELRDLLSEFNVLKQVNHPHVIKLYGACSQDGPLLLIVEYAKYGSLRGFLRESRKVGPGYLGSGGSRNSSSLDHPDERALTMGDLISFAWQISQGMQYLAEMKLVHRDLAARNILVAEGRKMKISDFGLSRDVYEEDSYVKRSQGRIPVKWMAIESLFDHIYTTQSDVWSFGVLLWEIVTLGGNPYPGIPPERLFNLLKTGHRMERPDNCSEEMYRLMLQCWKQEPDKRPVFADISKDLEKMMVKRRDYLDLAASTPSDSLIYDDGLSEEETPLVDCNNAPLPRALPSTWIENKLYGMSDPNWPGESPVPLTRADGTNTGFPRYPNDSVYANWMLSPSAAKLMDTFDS
# [6] = system: Proto-oncogene tyrosine-protein kinase receptor Ret (Homo sapiens), P07949 [M918T]; assay: as §1; details: at 10 µM
# Proto-oncogene tyrosine-protein kinase receptor Ret (Homo sapiens), P07949 [M918T], sequence (P07949 whole entry M918T): as the sequence (P07949 whole entry G691S) above, with S691G, M918T counted along it
# [7] = system: Proto-oncogene tyrosine-protein kinase receptor Ret (Homo sapiens), P07949 [V804M]; assay: as §1; details: at 10 µM
# Proto-oncogene tyrosine-protein kinase receptor Ret (Homo sapiens), P07949 [V804M], sequence (P07949 whole entry V804M): as the sequence (P07949 whole entry G691S) above, with S691G, V804M counted along it
# [8] = biological target: Protein arginine N-methyltransferase 1 (Homo sapiens, UniProt Q99873); assay: Selectivity interaction (Transferase panel (protein, RNA, and DNA methyltransferases. and EP300 (acetyltransferase))) EUB0000270b PRMT1
# Protein arginine N-methyltransferase 1, sequence (Q99873 whole entry, looked up): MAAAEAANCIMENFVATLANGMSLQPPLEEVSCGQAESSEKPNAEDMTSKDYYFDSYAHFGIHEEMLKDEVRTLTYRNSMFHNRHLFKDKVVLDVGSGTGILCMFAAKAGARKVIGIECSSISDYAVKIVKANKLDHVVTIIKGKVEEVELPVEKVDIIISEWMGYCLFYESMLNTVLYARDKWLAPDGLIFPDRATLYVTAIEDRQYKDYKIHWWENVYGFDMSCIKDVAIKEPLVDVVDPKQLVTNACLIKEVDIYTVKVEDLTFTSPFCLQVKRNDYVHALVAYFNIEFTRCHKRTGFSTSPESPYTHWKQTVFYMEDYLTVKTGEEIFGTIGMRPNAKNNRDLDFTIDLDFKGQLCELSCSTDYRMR
# [9] = biological target: DNA-dependent protein kinase catalytic subunit (Homo sapiens) (UniProt P78527); assay: Selectivity interaction (ActivX KiNativ screen (kinase selectivity in THP-1 cell lysates)) EUB0000639a PRKDC; format: subcellular; details: lysate, at 0.01 µM
# [10] = biological target: RAF proto-oncogene serine/threonine-protein kinase (Homo sapiens) (UniProt P04049); assay: Selectivity interaction (Kinase panel (Invitrogen)) EUB0000639a RAF1; details: at 200 nM
# [11] = biological target: T1, Phosphatidylinositol 5-phosphate 4-kinase type-2 gamma (Homo sapiens) (UniProt Q8TBX8); assay: Selectivity interaction (ActivX KiNativ screen (kinase selectivity in THP-1 cell lysates)) EUB0000639a PIP4K2C; format: subcellular; details: lysate, at 0.04 µM
# T1 sequence (whole entry): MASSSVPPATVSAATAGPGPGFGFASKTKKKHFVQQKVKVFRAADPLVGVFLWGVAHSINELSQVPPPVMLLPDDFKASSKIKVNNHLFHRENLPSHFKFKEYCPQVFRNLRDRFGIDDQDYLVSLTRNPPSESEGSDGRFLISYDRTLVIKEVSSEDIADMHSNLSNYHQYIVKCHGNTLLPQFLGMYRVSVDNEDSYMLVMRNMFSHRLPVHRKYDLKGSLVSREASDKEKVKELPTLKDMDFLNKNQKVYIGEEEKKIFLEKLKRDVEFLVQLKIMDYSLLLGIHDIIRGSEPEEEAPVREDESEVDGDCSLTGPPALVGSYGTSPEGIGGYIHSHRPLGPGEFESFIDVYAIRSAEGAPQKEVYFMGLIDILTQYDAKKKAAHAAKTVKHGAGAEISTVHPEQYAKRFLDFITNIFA
# [12] = biological target: Tyrosine-protein kinase ABL1 (Homo sapiens, UniProt P00519); assay: Selectivity interaction (ActivX KiNativ screen (kinase selectivity in THP-1 cell lysates)) EUB0000639a ABL1; format: subcellular; details: lysate, at 5 µM
# [13] = biological target: T2, Serine/threonine-protein kinase BRSK1 (Homo sapiens) (UniProt Q8TDC3); assay: Selectivity interaction (KinomeScan (DiscoverX)) EUB0001049a BRSK1; details: at 1 µM
# T2 sequence (whole entry): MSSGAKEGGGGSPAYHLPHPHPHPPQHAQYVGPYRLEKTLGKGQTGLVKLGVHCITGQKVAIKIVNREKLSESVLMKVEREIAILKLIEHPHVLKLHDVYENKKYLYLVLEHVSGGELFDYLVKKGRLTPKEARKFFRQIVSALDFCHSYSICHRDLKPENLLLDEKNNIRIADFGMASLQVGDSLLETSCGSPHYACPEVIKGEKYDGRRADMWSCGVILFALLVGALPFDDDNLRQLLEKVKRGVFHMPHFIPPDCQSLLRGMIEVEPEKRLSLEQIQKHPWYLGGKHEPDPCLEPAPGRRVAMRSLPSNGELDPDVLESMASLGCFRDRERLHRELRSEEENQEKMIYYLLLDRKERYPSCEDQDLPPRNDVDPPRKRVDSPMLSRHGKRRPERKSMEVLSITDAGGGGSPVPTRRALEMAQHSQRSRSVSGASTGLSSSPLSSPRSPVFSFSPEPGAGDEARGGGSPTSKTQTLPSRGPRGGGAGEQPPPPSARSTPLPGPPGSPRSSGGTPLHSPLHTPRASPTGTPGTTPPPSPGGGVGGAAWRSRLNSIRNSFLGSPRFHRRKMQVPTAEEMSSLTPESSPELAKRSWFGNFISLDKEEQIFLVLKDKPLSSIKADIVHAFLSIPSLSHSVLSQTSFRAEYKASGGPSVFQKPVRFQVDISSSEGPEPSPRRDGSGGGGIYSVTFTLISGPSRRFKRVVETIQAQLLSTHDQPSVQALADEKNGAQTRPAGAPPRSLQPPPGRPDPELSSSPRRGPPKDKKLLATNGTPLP
# [14] = Selectivity interaction (KinomeScan (DiscoverX)) EUB0000595a CDPK1; details: at 10 µM
# [15] = biological target: Serine/threonine-protein kinase N2 (Homo sapiens, UniProt Q16513); assay: Selectivity interaction (KinomeScan (DiscoverX)) EUB0000045b PKN2
# Serine/threonine-protein kinase N2, sequence (Q16513 whole entry, looked up): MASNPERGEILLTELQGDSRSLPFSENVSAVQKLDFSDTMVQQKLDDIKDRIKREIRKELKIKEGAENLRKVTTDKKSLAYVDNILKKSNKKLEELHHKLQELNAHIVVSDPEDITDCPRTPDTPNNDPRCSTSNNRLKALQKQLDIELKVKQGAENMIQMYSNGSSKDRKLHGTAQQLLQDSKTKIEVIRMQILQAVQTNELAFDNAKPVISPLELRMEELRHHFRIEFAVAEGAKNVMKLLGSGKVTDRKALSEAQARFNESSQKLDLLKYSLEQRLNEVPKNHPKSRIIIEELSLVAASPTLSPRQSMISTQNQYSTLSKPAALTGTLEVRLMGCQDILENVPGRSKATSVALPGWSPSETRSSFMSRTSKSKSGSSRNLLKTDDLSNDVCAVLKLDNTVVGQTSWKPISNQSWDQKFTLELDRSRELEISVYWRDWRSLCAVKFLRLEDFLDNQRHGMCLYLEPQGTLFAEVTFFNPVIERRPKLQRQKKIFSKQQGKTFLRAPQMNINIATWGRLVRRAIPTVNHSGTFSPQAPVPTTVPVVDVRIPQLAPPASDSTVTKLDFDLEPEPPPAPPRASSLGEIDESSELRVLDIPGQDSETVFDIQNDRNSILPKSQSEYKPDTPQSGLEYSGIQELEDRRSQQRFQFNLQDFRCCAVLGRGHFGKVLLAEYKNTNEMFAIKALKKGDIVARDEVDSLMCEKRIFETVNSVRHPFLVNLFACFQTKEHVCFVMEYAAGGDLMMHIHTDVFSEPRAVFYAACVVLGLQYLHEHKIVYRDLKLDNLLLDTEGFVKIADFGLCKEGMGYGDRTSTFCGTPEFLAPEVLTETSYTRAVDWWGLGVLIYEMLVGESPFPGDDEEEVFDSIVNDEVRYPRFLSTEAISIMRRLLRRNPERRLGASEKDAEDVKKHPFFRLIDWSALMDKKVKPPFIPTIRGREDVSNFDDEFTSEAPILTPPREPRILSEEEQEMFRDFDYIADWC
# [16] = biological target: Death-associated protein kinase 3 (Homo sapiens) (UniProt O43293); assay: Selectivity interaction (KinomeScan (DiscoverX)) EUB0000618a DAPK3; details: at 10 µM
# Death-associated protein kinase 3 (Homo sapiens), sequence (O43293 whole entry, looked up): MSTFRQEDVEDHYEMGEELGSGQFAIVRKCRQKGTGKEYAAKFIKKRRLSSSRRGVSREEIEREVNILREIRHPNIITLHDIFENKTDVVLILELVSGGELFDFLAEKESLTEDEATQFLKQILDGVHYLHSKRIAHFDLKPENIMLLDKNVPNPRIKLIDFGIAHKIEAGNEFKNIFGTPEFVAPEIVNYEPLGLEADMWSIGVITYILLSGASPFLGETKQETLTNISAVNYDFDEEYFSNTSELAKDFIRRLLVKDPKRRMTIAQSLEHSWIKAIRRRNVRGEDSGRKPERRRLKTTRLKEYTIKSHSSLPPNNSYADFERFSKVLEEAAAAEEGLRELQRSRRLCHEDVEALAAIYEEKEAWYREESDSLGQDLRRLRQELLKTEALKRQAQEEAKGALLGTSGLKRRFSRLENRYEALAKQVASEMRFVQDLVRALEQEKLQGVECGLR
# [17] = biological target: T3, Phosphatidylinositol 5-phosphate 4-kinase type-2 beta (Homo sapiens) (UniProt P78356); assay: Selectivity interaction (KinomeScan (DiscoverX)) EUB0000618a PIP4K2B; details: at 10 µM
# T3 sequence (whole entry): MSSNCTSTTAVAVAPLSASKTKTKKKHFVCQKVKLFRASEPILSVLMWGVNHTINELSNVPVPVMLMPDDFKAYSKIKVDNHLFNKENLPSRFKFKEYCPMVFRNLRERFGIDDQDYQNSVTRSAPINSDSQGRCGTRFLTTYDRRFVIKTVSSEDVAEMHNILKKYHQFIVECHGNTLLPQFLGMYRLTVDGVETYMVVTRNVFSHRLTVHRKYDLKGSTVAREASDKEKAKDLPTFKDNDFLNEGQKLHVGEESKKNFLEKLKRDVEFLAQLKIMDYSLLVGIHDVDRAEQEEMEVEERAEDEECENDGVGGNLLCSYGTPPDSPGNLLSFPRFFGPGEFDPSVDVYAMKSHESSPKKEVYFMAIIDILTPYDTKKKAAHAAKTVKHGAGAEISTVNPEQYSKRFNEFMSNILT
# [18] = biological target: Serine/threonine-protein kinase NIM1 (Homo sapiens, UniProt Q8IY84); assay: Selectivity interaction (KinomeScan (DiscoverX)) EUB0000618a NIM1K; details: at 10 µM
# Tyrosine-protein kinase Lyn, sequence (P07948 2-512 limits assumed): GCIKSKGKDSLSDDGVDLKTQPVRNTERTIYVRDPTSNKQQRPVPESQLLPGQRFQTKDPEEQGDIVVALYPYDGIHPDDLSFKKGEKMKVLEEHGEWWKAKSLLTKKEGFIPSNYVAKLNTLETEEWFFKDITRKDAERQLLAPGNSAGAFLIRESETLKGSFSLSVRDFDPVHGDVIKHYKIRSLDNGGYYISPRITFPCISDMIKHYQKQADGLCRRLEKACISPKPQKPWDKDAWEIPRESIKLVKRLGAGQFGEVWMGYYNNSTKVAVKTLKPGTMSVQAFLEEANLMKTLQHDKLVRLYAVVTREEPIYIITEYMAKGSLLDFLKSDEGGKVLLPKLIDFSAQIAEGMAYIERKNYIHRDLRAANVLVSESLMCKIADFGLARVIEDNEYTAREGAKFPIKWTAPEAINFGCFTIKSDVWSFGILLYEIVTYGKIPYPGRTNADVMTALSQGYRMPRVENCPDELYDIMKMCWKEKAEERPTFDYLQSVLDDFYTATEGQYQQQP
# Mitogen-activated protein kinase 14, sequence (Q16539 whole entry): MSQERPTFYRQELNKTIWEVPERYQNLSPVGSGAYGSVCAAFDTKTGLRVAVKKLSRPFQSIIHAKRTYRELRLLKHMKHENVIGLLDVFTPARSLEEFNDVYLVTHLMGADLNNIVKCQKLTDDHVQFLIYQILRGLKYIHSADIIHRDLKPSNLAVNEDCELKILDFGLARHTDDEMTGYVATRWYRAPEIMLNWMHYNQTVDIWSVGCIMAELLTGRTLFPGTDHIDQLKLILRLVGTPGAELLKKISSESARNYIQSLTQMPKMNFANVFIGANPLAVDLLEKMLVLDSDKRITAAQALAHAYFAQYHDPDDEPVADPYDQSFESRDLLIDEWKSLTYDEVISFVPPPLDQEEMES
smiles,measurement,setting,value
CCN(CC)CCCCNc1ncc2cc(-c3cc(OC)cc(OC)c3)c(NC(=O)NC(C)(C)C)nc2n1,% of control,[1],100%
Cc1ccc(-c2ccc3c(ccc4sc5c(c43)NC[C@@H](C)NC5=O)n2)cn1,% of inhibition,[2],0%
CN(C)CCOc1ccc(-c2nc(-c3ccncc3)c(-c3ccc4c(c3)CC/C4=N\O)[nH]2)cc1,% of control,[3],6%
C=CC(=O)Nc1ccc(C(=O)Nc2[nH]nc3c2CN(C(=O)N[C@H](CN(C)C)c2ccccc2)C3(C)C)cc1,% of engagement,[4],-18.9%
Cn1cc(-n2cnc3c(NCc4nc5cc(Cl)c(Cl)cc5[nH]4)nc(N4CCOCC4)nc32)cn1,% of inhibition,[5],-30.5%
same,% of inhibition,[6],-33.9%
same,% of inhibition,[7],-50.1%
Cc1cc(CN)cc(C)c1-c1ncn(C)c1-c1cncn1C,% activity,[8]; at 1 µM,> 90%
same,% activity,[8]; at 10 µM,> 80%
CC[C@@H]1[C@H](F)C(=O)N[C@@H]1COc1nccc2cc(C(N)=O)c(OC)cc12 [ZIMLOVISERTIB],% of inhibition,[9],-2.2%
same,% of inhibition,[10],15.9%
same,% of inhibition,[11],6.2%
same,% of inhibition,[12],30.7%
COc1cc(Nc2nc(C)cc(-c3cnn4nc(OC)ccc34)n2)cc(C(F)(F)F)c1,% of control,[13],86%
COCC(=O)NC/C=C/c1ccc2ncnc(Nc3ccc(Oc4ccc(C)nc4)c(C)c3)c2c1 [CP-724714],% of control,[14],25%
C=CC(=O)Nc1cc(-n2c(=O)ccc3cnc4ccc(-c5ccc(NS(C)(=O)=O)cc5)cc4c32)ccc1C,% of control,[15]; at 1 µM,100%
same,% of control,[15]; at 10 µM,100%
O[C@H]1CC[C@H](Nc2ncc3nc(Nc4c(F)cc(F)cc4F)n([C@H]4CCOC4)c3n2)CC1,% of control,[16],100%
same,% of control,[17],98%
same,% of control,[18],100%
